Assay [1] concerns the target T1, MCL-1 (Homo sapiens, UniProt Q07820). Nature of the assay: biochemical.
A further assay has as its target T2, BCL-xL (Homo sapiens, UniProt Q07817, DEL27-82).
T2 construct: BCL-2, 1-209; His-SUMO (N, cleaved yes); made in house; host or cells: E. coli BL21
Nature of the assay: Direct FA titration of FAM-labelled tracer with BCL-xL. It is filed as binding. Particulars: FAM-Ahx-Beclin-1 150 nM, BCL-xL 6 nM-125 μM, 25 mM Tris, 150 mM NaCl, pH 7.4, 20 °C.

For assay [2], the target named is T1, MCL-1. The conditions noted are these: IC50 HRK/MCL-1 divided by IC50 HRK/BCL-xL.

*1 amine or outer side, *2 acyl side, *3 side chain or, on linkers, in order; H or OH if unused. Where a SMILES comes first, the peptide text is derived from it. Bridges are numbered along the chain shown (N, C = ends). [ ]: non-standard residue; d: D form. The star is where a group is joined. 5FAM = O=C1OC2(c3ccc(O)cc3Oc3cc(O)ccc32)c2ccc(C(=O)*)cc21; Maleimide(3,4-diyl) = O=C1NC(=O)C([*:2])=C1[*:1]; Nle = CCCC[C@H](N)C(=O)O; Ahx = NCCCCCC(=O)O

T1 sequence (Q07820 172-327): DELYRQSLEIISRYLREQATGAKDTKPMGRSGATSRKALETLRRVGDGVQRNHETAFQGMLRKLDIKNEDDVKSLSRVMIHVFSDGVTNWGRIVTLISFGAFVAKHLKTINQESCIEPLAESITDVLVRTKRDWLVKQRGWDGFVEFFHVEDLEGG
T2 sequence (Q07817 with tags, fused parts or gaps DEL27-82): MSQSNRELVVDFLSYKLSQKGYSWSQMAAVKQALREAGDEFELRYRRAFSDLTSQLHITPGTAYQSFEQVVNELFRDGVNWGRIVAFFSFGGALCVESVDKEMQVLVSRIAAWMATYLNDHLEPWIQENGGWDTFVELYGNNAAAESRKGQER

One may read the IC50 as the concentration that gives 50% inhibition. With `CSCC[C@H](NC(=O)[C@H](CCCNC(=N)N)NC(=O)[C@H](CCCNC(=N)N)NC(=O)[C@H](CC(C)C)NC(=O)[C@H](CCC(=O)O)NC(=O)[C@H](CCCNC(=N)N)NC(=O)CNC(=O)[C@H](Cc1ccc(O)cc1)NC(=O)[C@H](CCCNC(=N)N)NC(=O)[C@H](CCC(N)=O)NC(=O)[C@H](C)NC(=O)[C@H](C)NC(=O)[C@H](Cc1c[nH]c2ccccc12)NC(=O)[C@H](CC(C)C)NC(=O)[C@H](CC(N)=O)NC(C)=O)C(=O)N[C@@H](CO)C(=O)N[C@@H](CC(=O)O)C(=O)N[C@@H](CCC(=O)O)C(=O)N[C@@H](Cc1ccccc1)C(=O)N[C@H](C(=O)N[C@@H](CC(=O)O)C(=O)N[C@@H](CO)C(=O)N[C@@H](Cc1ccccc1)C(=O)N[C@@H](CCCCN)C(=O)N[C@@H](CCCCN)C(N)=O)C(C)C` [BAD-wt, reference compound], the IC50 against MCL-1 [1] is greater than 50 µM. For orientation: Kd means a measure of binding affinity in units of concentration. Read a low Kd as tighter binding. As for `CC[C@H](C)[C@H](NC(=O)[C@H](CC(=O)O)NC(=O)[C@H](Cc1ccccc1)NC(=O)[C@H](CC(C)C)NC(=O)[C@H](CC(=O)O)NC(=O)CNC(=O)[C@@H](NC(=O)[C@@H](NC(=O)[C@H](CCCCN)NC(=O)[C@H](CC(C)C)NC(=O)[C@H](CCCNC(=N)N)NC(=O)[C@H](CCCNC(=N)N)NC(=O)[C@H](CO)NC(=O)[C@H](CC(C)C)NC(=O)[C@H](CC(N)=O)NC(=O)[C@H](CCC(=O)O)NC(=O)[C@H](CCSC)NC(=O)[C@@H](NC(=O)CCCCCNC(=O)c1ccc2c(c1)C(=O)OC21c2ccc(O)cc2Oc2cc(O)ccc21)[C@@H](C)O)C(C)C)[C@@H](C)O)C(=O)N[C@@H](CCSC)C(=O)N[C@@H](CO)C(N)=O` [FAM-Ahx-Beclin-1] ({5FAM-Ahx}-TMENLSRRLKVTGDLFDIMS-NH2), binding at BCL-xL was characterised by a dissociation constant (Kd) of 9.7 ± 2.3 µM. Compound `CCCC[C@H](NC(=O)[C@H](C)NC(=O)[C@H](CCCCN)NC(=O)[C@H](CC(C)C)NC(=O)[C@H](CCCNC(=N)N)NC(=O)[C@H](C)NC(=O)[C@H](C)NC(=O)[C@H](Cc1ccc(O)cc1)NC(=O)[C@H](CC(C)C)NC(=O)[C@H](CCC(N)=O)NC(=O)[C@H](C)NC(=O)[C@H](C)NC(=O)[C@H](CO)NC(C)=O)C(=O)NCC(=O)N[C@@H](CC(=O)O)C(=O)N[C@@H](CCC(=O)O)C(=O)N[C@@H](Cc1ccccc1)C(=O)N[C@@H](Cc1c[nH]cn1)C(=O)N[C@@H](CCC(N)=O)C(N)=O` [HRK-3] (Ac-SAAQLYAARLKA[Nle]GDEFHQ-NH2) yielded an IC50 on MCL-1 [1] greater than 50 µM. On MCL-1 [1], `CC(=O)N[C@@H](CO)C(=O)N[C@@H](C)C(=O)N[C@@H](C)C(=O)N[C@@H](CCC(N)=O)C(=O)N[C@@H](CC(C)C)C(=O)N[C@@H](Cc1ccc(O)cc1)C(=O)N[C@@H](C)C(=O)N[C@@H](CS)C(=O)N[C@@H](CCCNC(=N)N)C(=O)N[C@@H](CC(C)C)C(=O)N[C@@H](CCCCN)C(=O)N[C@@H](CS)C(=O)N[C@@H](Cc1ccccc1)C(=O)NCC(=O)N[C@@H](CC(=O)O)C(=O)N[C@@H](CCC(=O)O)C(=O)N[C@@H](Cc1ccccc1)C(=O)N[C@@H](Cc1c[nH]cn1)C(=O)N[C@@H](CCC(N)=O)C(N)=O` [HRKC4H] (Ac-SAAQLYACRLKCFGDEFHQ-NH2) registered an IC50 greater than 50 µM. At MCL-1 [2], the “IC50 ratio MCL-1 : BCL-xL (selectivity index)” value is listed as greater than 2.5. Compound `CSCC[C@H](NC(=O)[C@@H](NC(=O)[C@H](CCCNC(=N)N)NC(=O)[C@H](CCC(N)=O)NC(=O)[C@H](Cc1c[nH]cn1)NC(=O)[C@H](CC(C)C)NC(=O)[C@H](CCC(=O)O)NC(=O)[C@H](CC(=O)O)NC(=O)CNC(=O)[C@H](CC(C)C)NC(=O)[C@H](CS)NC(=O)[C@H](CCCCN)NC(=O)[C@H](CC(C)C)NC(=O)[C@H](CCCNC(=N)N)NC(=O)[C@H](CS)NC(=O)[C@H](C)NC(=O)[C@@H](NC(=O)[C@H](CC(C)C)NC(=O)[C@H](CCC(N)=O)NC(=O)[C@H](C)NC(=O)[C@H](C)NC(=O)[C@H](CO)NC(C)=O)[C@@H](C)O)[C@@H](C)O)C(=O)N[C@@H](Cc1c[nH]c2ccccc12)C(N)=O` [HRKC4] (Ac-SAAQLTACRLKCLGDELHQRTMW-NH2) yielded an IC50 against MCL-1 [1] of 3.9 ± 0.2 µM. `CC(=O)N[C@@H](CO)C(=O)N[C@@H](C)C(=O)N[C@@H](C)C(=O)N[C@@H](CCC(N)=O)C(=O)N[C@@H](CC(C)C)C(=O)N[C@@H](Cc1ccc(O)cc1)C(=O)N[C@@H](C)C(=O)N[C@H]1CSC2=C(SC[C@@H](C(=O)N[C@@H](Cc3ccccc3)C(=O)NCC(=O)N[C@@H](CC(=O)O)C(=O)N[C@@H](CCC(=O)O)C(=O)N[C@@H](Cc3ccccc3)C(=O)N[C@@H](Cc3c[nH]cn3)C(=O)N[C@@H](CCC(N)=O)C(N)=O)NC(=O)[C@H](CCCCN)NC(=O)[C@H](CC(C)C)NC(=O)[C@H](CCCNC(=N)N)NC1=O)C(=O)NC2=O` [HRKS4H] (Ac-SAAQLYACRLKCFGDEFHQ-NH2; linker 8-12 via Maleimide(3,4-diyl)): at MCL-1 [1], the IC50 is greater than 50 µM. The “IC50 ratio MCL-1 : BCL-xL (selectivity index)” value at MCL-1 [2] is greater than 5.9. In turn, “Ac-RYGRELRRMSDEFVDSFKK-NH2 [BAD-s, reference compound]” displayed an IC50 at MCL-1 [1] greater than 50 µM. The compound Ac-SAAQLLAARLKAFGDEFHQ-NH2 [HRK-5] yielded an IC50 against MCL-1 [1] of 16 ± 4.4 µM. Moreover, the “IC50 ratio MCL-1 : BCL-xL (selectivity index)” value on MCL-1 [2] was 16.0.

In the case of Ac-SAAQLLAARLKALGDELHQ-NH2 [HRK-4], on MCL-1 [1], 3.5 ± 1.2 µM corresponded to half-maximal inhibition (IC50). In addition, on MCL-1 [2], the “IC50 ratio MCL-1 : BCL-xL (selectivity index)” value was determined as 2.5. The like results for Ac-SAAQLTAARLKALGDELHQ-NH2 [HRK-s] were, in that order, greater than 50 µM and greater than 2.3.

As to Ac-SAAQLYAARLKAFGDEFHQ-NH2 [HRK-hybrid], at MCL-1 [1], the IC50 was greater than 50 µM. The “IC50 ratio MCL-1 : BCL-xL (selectivity index)” value on MCL-1 [2] is greater than 55.5. Compound Ac-SAAQLYAARLKALGDEFHQ-NH2 [HRK-2] showed an IC50 against MCL-1 [1] greater than 50 µM. Also, the “IC50 ratio MCL-1 : BCL-xL (selectivity index)” value on MCL-1 [2] is greater than 45.4.

For the compound Ac-SAAQLYAARLKALGDELHQ-NH2 [HRK-1], on MCL-1 [1], the IC50 was greater than 50 µM. Further, the “IC50 ratio MCL-1 : BCL-xL (selectivity index)” value at MCL-1 [2] is recorded as greater than 5.8.

The values above are taken from publication PMC9904277, “Rational design of Harakiri (HRK)-derived constrained peptides as BCL-xL inhibitors” (Chemical Communications (Cambridge, England), 2023).
